# Reference: US9776979B2, “EBI2 modulators” (Sanford-Burnham Medical Research Institute, priority 2013, dated 2017)
# Target: EBI2 (Homo sapiens, UniProt P32249)
# Assay: Cell-based luminescent assay (EBI2 modulation)
# Details: cell-based luminescence; 7a,25-OHC final assay concentration 80 nM; 60 minutes incubation; read-out: IC50
# Procedure, shortened: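 Cells plated overnight at 37° C, then exposed to compound at 4-5 uM final with 80 nM 7a,25-OHC agonist for 60 min at 37° C. Luminescence read after 60 min detection at 25° C in the dark; values normalized to neutral and stimulator controls and plate-pattern corrected.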
# EBI2, sequence (P32249 whole entry): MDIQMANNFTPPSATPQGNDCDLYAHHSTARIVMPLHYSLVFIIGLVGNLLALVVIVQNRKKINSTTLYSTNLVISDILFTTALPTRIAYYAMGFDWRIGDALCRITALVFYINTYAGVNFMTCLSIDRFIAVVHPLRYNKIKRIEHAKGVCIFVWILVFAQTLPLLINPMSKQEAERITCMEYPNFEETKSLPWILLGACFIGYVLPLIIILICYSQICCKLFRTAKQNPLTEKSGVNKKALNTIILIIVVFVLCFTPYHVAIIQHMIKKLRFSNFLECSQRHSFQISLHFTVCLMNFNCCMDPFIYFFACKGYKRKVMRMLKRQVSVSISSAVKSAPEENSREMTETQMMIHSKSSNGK
row,Structure (SMILES),IC50
1,"COc1cc(CN2CCN(C(=O)/C=C/c3ccc(Br)cc3)CC2)cc(OC)c1 [Compound C72, (2E)-1-{4-[(3,5-dimethoxyphenyl)methyl]piperazinyl}-3-(4-bromophenyl)prop-2-en-1-one]",< 100 nM
2,"O=C(C#Cc1ccc(Cl)cc1)N1CCN(C(=O)c2ccc(C(F)(F)F)cc2)CC1 [Compound C73, 3-(4-chlorophenyl)-1-(4-{[4-(trifluoromethyl)phenyl]carbonyl}piperazinyl)prop-2-yn-1-one]",< 100 nM
3,"COc1ccc(C(=O)N2CCN(C(=O)C#Cc3ccc(F)cc3)CC2)cc1 [Compound C75, 3-(4-fluorophenyl)-1-{4-[(4-methoxyphenyl)carbonyl]piperazinyl}prop-2-yn-1-one]",< 100 nM
4,"O=C(C#Cc1ccc(C(F)(F)F)cc1)N1CCN(C(=O)c2ccc(F)cc2)CC1 [Compound C76, 1-{4-[(4-fluorophenyl)carbonyl]piperazinyl}-3-[4-(trifluoromethyl)phenyl]prop-2-yn-1-one]",< 100 nM
5,"CCC(C)C(=O)N1CCN(C(=O)/C=C/c2ccc(Br)cc2)CC1 (stereo not drawn) [Compound C78, (2E)-3-(4-bromophenyl)-1-[4-(2-methylbutanoyl)piperazinyl]prop-2-en-1-one]",< 100 nM
6,"O=C(c1cc2cc(C(F)(F)F)ccc2[nH]1)N1CCN(C(c2ccccc2)c2ccccc2)CC1 [Compound C79, 4-(diphenylmethyl)piperazinyl 5-(trifluoromethyl)indol-2-yl ketone]",< 100 nM
7,"COC(=O)c1ccc(C(=O)N2CCN(C(=O)c3cc4cc(Br)ccc4[nH]3)CC2)cc1 [Compound C81, methyl 4-({4-[(5-bromoindol-2-yl)carbonyl]piperazinyl}carbonyl)benzoate]",< 100 nM
8,"O=C(/C=C/c1ccc(Br)cc1)N1CCN(C(=O)C2CCCC2)CC1 [Compound C82, (2E)-3-(4-bromophenyl)-1-[4-(cyclopentylcarbonyl)piperazinyl]prop-2-en-1-one]",< 100 nM
9,"O=C(C#Cc1ccc(C(F)(F)F)cc1)N1CCN(C(=O)c2ccc(C(F)(F)F)cc2)CC1 [Compound C84, 3-[4-(trifluoromethyl)phenyl]-1-(4-{[4-(trifluoromethyl)phenyl]carbonyl}piperazinyl)prop-2-yn-1-one]",< 100 nM
10,"O=C(c1cnc2cc(F)ccc2c1)N1CCN(C(c2ccccc2)c2ccccc2)CC1 [Compound C86, 4-(diphenylmethyl)piperazinyl 7-fluoro(3-quinolyl) ketone]",< 100 nM
11,"O=C(c1cc2ccccc2o1)N1CCN(C(c2ccccc2)c2ccccc2)CC1 [Compound C87, benzo[d]furan-2-yl 4-(diphenylmethyl)piperazinyl ketone]",< 100 nM
12,"O=C(c1cc2cc(Cl)ccc2[nH]1)N1CCN(S(=O)(=O)CCc2ccccc2)CC1 [Compound C88, 5-chloroindol-2-yl 4-[(2-phenylethyl)sulfonyl]piperazinyl ketone]",< 100 nM
13,"O=C(c1ccc(Cl)cc1)N1CCN(C(=O)c2cc3cc(Cl)ccc3[nH]2)CC1 [Compound C89, 5-chloroindol-2-yl 4-[(4-chlorophenyl)carbonyl]piperazinyl ketone]",< 100 nM
14,"O=C(C#Cc1cccc(Cl)c1Cl)N1CCN(C(=O)c2ccc(F)cc2C(F)(F)F)CC1 [Compound C90, 3-(2,3-dichlorophenyl)-1-(4-{[4-fluoro-2-(trifluoromethyl)phenyl]carbonyl}piperazinyl)prop-2-yn-1-one]",< 100 nM
15,"O=C(/C=C/c1ccc(Br)cc1)N1CCN(Cc2ccc(Cl)cc2C(F)(F)F)CC1 [Compound C91, (2E)-3-(4-bromophenyl)-1-(4-{[4-chloro-2-(trifluoromethyl)phenyl]methyl}piperazinyl)prop-2-en-1-one]",< 100 nM
16,"O=C(C#Cc1cccc(Cl)c1)N1CCN(C(c2ccccc2)c2ccccc2)CC1 [Compound C92, 1-[4-(diphenylmethyl)piperazinyl]-3-(3-chlorophenyl)prop-2-yn-1-one]",< 100 nM
17,O=C(/C=C/c1ccc(F)cc1)N1CCN(S(=O)(=O)/C=C/c2ccccc2)CC1 [Compound C95],< 100 nM
18,"O=C(/C=C/c1ccc(F)cc1)N1CCN(S(=O)(=O)c2ccc(Cl)cc2)CC1 [Compound C96, (2E)-1-{4-[(4-chlorophenyl)sulfonyl]piperazinyl}-3-(4-fluorophenyl)prop-2-en-1-one]",< 100 nM
19,"COc1ccc2[nH]c(C(=O)N3CCN(C(c4ccccc4)c4ccccc4)CC3)cc2c1 [Compound C97, 4-(diphenylmethyl)piperazinyl 5-methoxyindol-2-yl ketone]",< 100 nM
20,"CCCCC(=O)N1CCN(C(=O)/C=C/c2ccc(Br)cc2)CC1 [Compound C98, (2E)-3-(4-bromophenyl)-1-(4-pentanoylpiperazinyl)prop-2-en-1-one]",< 100 nM
21,"O=C(/C=C/c1ccccc1)N1CCN(C(=O)/C=C/c2ccccc2)CC1 [Compound C99, (2E)-1-[4-((2E)-3-phenylprop-2-enoyl)piperazinyl]-3-phenylprop-2-en-1-one]",< 100 nM

row,Structure (SMILES),IC50
1,"O=C(/C=C/c1ccc(F)cc1)N1CCN(S(=O)(=O)c2ccccc2Br)CC1 [Compound C100, (2E)-1-{4-[(2-bromophenyl)sulfonyl]piperazinyl}-3-(4-fluorophenyl)prop-2-en-1-one]",< 100 nM
2,"N#Cc1ccc(C(=O)N2CCN(C(=O)c3cc4cc(C(F)(F)F)ccc4[nH]3)CC2)cc1 [Compound C102, 4-[(4-{[5-(trifluoromethyl)indol-2-yl]carbonyl}piperazinyl)carbonyl]benzenecarbonitrile]",< 100 nM
3,"CC(C)c1ccc(CN2CCN(C(=O)/C=C/c3ccc(Br)cc3)CC2)cc1 [Compound C103, (2E)-3-(4-bromophenyl)-1-(4-{[4-(methylethyl)phenyl]methyl}piperazinyl)prop-2-en-1-one]",< 100 nM
4,"O=C(c1cc2ccc(Cl)cc2[nH]1)N1CCN(C(c2ccccc2)c2ccccc2)CC1 [Compound C104, 4-(diphenylmethyl)piperazinyl 6-chloroindol-2-yl ketone]",< 100 nM
5,"Cc1ccc2c(c1)cc(C(=O)N1CCN(C(c3ccccc3)c3ccccc3)CC1)n2C [Compound C105, 1,5-dimethylindol-2-yl 4-(diphenylmethyl)piperazinyl ketone]",< 100 nM
6,"O=C(/C=C/c1ccc(F)c(F)c1)N1CCN(C(c2ccccc2)c2ccccc2)CC1 [Compound C106, (2E)-3-(3,4-difluorophenyl)-1-[4-(diphenylmethyl)piperazinyl]prop-2-en-1-one]",< 100 nM
7,"Cc1cc(C)cc(CN2CCN(C(=O)/C=C/c3ccc(Br)cc3)CC2)c1 [Compound C109, (2E)-1-{4-[(3,5-dimethylphenyl)methyl]piperazinyl}-3-(4-bromophenyl)prop-2-en-1-one]",< 100 nM
8,"O=C(c1ccc2ncccc2c1)N1CCN(C(c2ccccc2)c2ccccc2)CC1 [Compound C110, 4-(diphenylmethyl)piperazinyl 6-quinolyl ketone]",< 100 nM
9,"Cc1ccc2[nH]c(C(=O)N3CCN(Cc4ccc5c(c4)OCO5)CC3)cc2c1 [Compound C111, 4-(2H-benzo[d]1,3-dioxolan-5-ylmethyl)piperazinyl 5-methylindol-2-yl ketone]",< 100 nM
10,"O=C(C#Cc1ccc2c(c1)OCO2)C1CCN(C(=O)c2ccc(F)cc2)CC1 [Compound C112, 3-(2H-benzo[3,4-d]1,3-dioxolen-5-yl)-1-{1-[(4-fluorophenyl)carbonyl](4-piperidyl)}prop-2-yn-1-one]",< 100 nM
11,"O=C(/C=C/c1ccccc1F)N1CCN(C(c2ccccc2)c2ccccc2)CC1 [Compound C113, (2E)-1-[4-(diphenylmethyl)piperazinyl]-3-(2-fluorophenyl)prop-2-en-1-one]",< 100 nM
12,"O=C(C#Cc1ccc2c(c1)OCO2)N1CCN(C(=O)c2ccc(Cl)cc2)CC1 [Compound C114, 3-(2H-benzo[3,4-d]1,3-dioxolen-5-yl)-1-{4-[(4-chlorophenyl)carbonyl]piperazinyl}prop-2-yn-1-one]",< 100 nM
13,"O=C(c1ccc(I)cc1)N1CCN(C(=O)c2cc3cc(Cl)ccc3[nH]2)CC1 [Compound C115, 5-chloroindol-2-yl 4-[(4-iodophenyl)carbonyl]piperazinyl ketone]",< 100 nM
14,"O=C(C#Cc1ccccc1)N1CCN(C(=O)c2ccc(F)cc2)CC1 [Compound C116, 1-{4-[(4-fluorophenyl)carbonyl]piperazinyl}-3-phenylprop-2-yn-1-one]",< 100 nM
15,"O=C(C#Cc1cccc(Cl)c1)N1CCN(C(=O)c2ccc(C(F)(F)F)cc2)CC1 [Compound C117, 3-(3-chlorophenyl)-1-(4-{[4-(trifluoromethyl)phenyl]carbonyl}piperazinyl)prop-2-yn-1-one]",< 100 nM
16,"CC(C)CC(=O)N1CCN(C(=O)/C=C/c2ccc(Br)cc2)CC1 [Compound C118, (2E)-3-(4-bromophenyl)-1-[4-(3-methylbutanoyl)piperazinyl]prop-2-en-1-one]",< 100 nM
17,"O=C(c1ccc(F)cc1)N1CCN(C(=O)c2cc3cc(Cl)ccc3[nH]2)CC1 [Compound C119, 5-chloroindol-2-yl 4-[(4-fluorophenyl)carbonyl]piperazinyl ketone]",< 100 nM
18,"O=C(C#Cc1ccc2c(c1)OCO2)N1CCN(C(=O)c2ccc(Br)cc2)CC1 [Compound C120, 3-(2H-benzo[3,4-d]1,3-dioxolen-5-yl)-1-{4-[(4-bromophenyl)carbonyl]piperazinyl}prop-2-yn-1-one]",< 100 nM
19,"Cc1ccc(C#CC(=O)N2CCN(Cc3ccc(F)cc3)CC2)cc1 [Compound C122, 1-{4-[(4-fluorophenyl)methyl]piperazinyl}-3-(4-methylphenyl)prop-2-yn-1-one]",< 100 nM
20,"O=C(c1cc2ccccc2s1)N1CCN(C(c2ccccc2)c2ccccc2)CC1 [Compound C123, benzo[b]thiophen-2-yl 4-(diphenylmethyl)piperazinyl ketone]",< 100 nM
21,"Cc1ccc(S(=O)(=O)N2CCN(C(=O)/C=C/c3ccc(F)cc3)CC2)cc1 [Compound C124, (2E)-3-(4-fluorophenyl)-1-{4-[(4-methylphenyl)sulfonyl]piperazinyl}prop-2-en-1-one]",< 100 nM
